# Assays:
# [1] = Solubility of biocidal active substances in various solvents, by stepwise concentration of a 10 wt% starting solution at 25°C; assay type: physicochemical
# Method: Die nachfolgenden Beispiele dienen der näheren Erläuterung der Erfindung. Alle Prozentangaben sind Gewichtsprozente, sofern nicht anders angegeben. Tabelle 1: Löslichkeiten von bioziden Wirksubstanzen in verschiedenen Lösemitteln
# Die Löslichkeiten wurden durch schrittweises Aufkonzentrieren einer Startlösung bei 10 Gew.-% bei 25°C ermittelt. Tabelle 2: Lagerstabilität von bioziden Wirksubstanzen in verschiedenen Lösemitteln bei -5°C, +20°C und +50°C bei 14 Tagen Lagerdauer
# [2] = in Tierversuchen; cited from earlier work
# [3] = solvent Dipropylenglykol (DPG), weight percent
# [4] = solvent N-Methylpyrrolidon (NMP), weight percent
# [5] = solvent Tetraethylenglykoldimethylether (TEGDME), weight percent
# [6] = solvent TEGDME / DPG 1:2,7, weight percent
smiles,measurement,setting,value
"CCCCNC(=O)OCC#CI [8(V), 3-Jod-2-propinyl-butylcarbamat]",Löslichkeit [25°C],[1]; [3],34%
CN1CCCC1=O [N-Methyl-2-Pyrrolidon],fruchtschädigende Wirkung,[2],fruchtschädigende Wirkung
"O=[N+]([O-])C(Br)(CO)CO [1 (V), 2-Bromo-2-nitro-1,3-propandiol]",Löslichkeit [25°C],[1]; [4],51%
"CCCCNC(=O)OCC#CI [5(V), 3-Jod-2-propinyl-butylcarbamat]",Löslichkeit [25°C],[1]; [4],45%
"N#CCCC(Br)(C#N)CBr (stereo not shown) [Beispiel 14, 1,2-Dibromo-2,4-dicyanobutan]",Löslichkeit [25°C],[1]; [5],47%
"O=[N+]([O-])C(Br)(CO)CO [4(V), 2-Bromo-2-nitro-1,3-propandiol]",Löslichkeit [25°C],[1]; [3],26%
"O=[N+]([O-])C(Br)(CO)CO [Beispiel 3, 2-Bromo-2-nitro-1,3-propandiol]",Löslichkeit [25°C],[1]; [6],39%
"N#CCCC(Br)(C#N)CBr (stereo not shown) [16(V), 1,2-Dibromo-2,4-dicyanobutan]",Löslichkeit [25°C],[1]; [3],21%
"N#CCCC(Br)(C#N)CBr (stereo not shown) [13(V), 1,2-Dibromo-2,4-dicyanobutan]",Löslichkeit [25°C],[1]; [4],39%
"N#CCCC(Br)(C#N)CBr (stereo not shown) [Beispiel 15, 1,2-Dibromo-2,4-dicyanobutan]",Löslichkeit [25°C],[1]; [6],34%
"O=[N+]([O-])C(Br)(CO)CO [Beispiel 2, 2-Bromo-2-nitro-1,3-propandiol]",Löslichkeit [25°C],[1]; [5],56%
"CCCCNC(=O)OCC#CI [Beispiel 6, 3-Jod-2-propinyl-butylcarbamat]",Löslichkeit [25°C],[1]; [5],52%
"CCCCNC(=O)OCC#CI [Beispiel 7, 3-Jod-2-propinyl-butylcarbamat]",Löslichkeit [25°C],[1]; [6],50%

# Source: patent EP1767091A2, “Biocidal compositions” (Clariant Produkte (Deutschland) GmbH, priority 2005, dated 2007)
